Measurements: patent publication US12611406B2, “Oxopiperazine derivatives for the treatment of cancer” (Inthera Bioscience AG, priority 2020, dated 2026)
Read-outs that look alike come from different tables or passages of the source.

Legend:
22Rv1 = 22Rv1 prostate cancer CDX mouse model; type: in vivo
From the text: Left panel: Tumor growth curves. Right panel: Body weight development. The respective dosing regimen is indicated as bars below the x-axis. QD: once daily treatment; po: per os.
Left panel: Tumor growth curves. Right panel: Body weight development. The dosing regimen is indicated as dots below the curves. BID: twice daily treatment. QW: once weekly treatment. p.o.: per oral.
NCI-H660 cells represent a rather far advanced PC type in which not only the tumor suppressor functions of Rb1 and p53 have been lost (see Table 1). Furthermore, the cells already have developed a small cell phenotype characteristic of advanced treatment-resistant PC. In contrast, 22Rv1 tumor cells that are wild-type for Rb1 and p53 pathways were less sensitive to Compound 1 treatment when a once weekly dosing scheme was used.
Values larger than 100% indicate tumor regression.

[1] = 5-day daily oral repeated-dose pilot study in cynomolgus monkeys (mesylate salt); type: in vivo; conditions: for Tmax: all groups
Experimental: The objective of the study was to determine the TK profile of Compound 1 following its daily administration through oral gavage (po) for 5 days to cynomolgus monkeys.
Naïve male and female cynomolgus monkeys (2 animals/sex/group) were orally administered Compound 1 (mesylate salt) at dose levels of 8, 12 or 16 mg/kg/day for 5 consecutive days. The vehicle was 0.5% (w/v) methyl cellulose 400 in sterile water. For TK evaluation blood samples were collected from each animal on Days 1 and 5 at pre-dose, 15 min, 30 min, as well as 1, 2, 4, 6, 8, 12, and 24 hours post-dose.

[2] = Single dose oral and intravenous PK in CD-1 mice (mesylate salt), blood; type: in vivo; set-up: AUC(0-t) / AUC(0-inf): unit not given here; conditions: male, CD-1, mouse, whole blood
Experimental: These studies analyzed the PK profile of Compound 1 following a single oral gavage or single intravenous dose to CD-1 mice.
Compound 1 (mesylate salt) was administered to four groups of male mice (n=4/group) as a single oral (po) gavage administration at dose levels of 5, 10, 20, and 50 mg/kg/adm or as single intravenous (IV) dose at 5 and 50 mg/kg/adm. The vehicle was 1% methylcellulose with 0.1% Tween-80 in study AMP800 and 5% dextrose in water in study AMP799. Blood samples were collected at pre-dose, 10 minutes, 40 minutes, 2, 4, and 7 hours after administration for analysis of Compound 1 concentrations in blood by liquid chromatography—tandem mass spectroscopy (LC-MS/MS) and subsequent calculation of PK parameters.

[3] = Single dose intravenous and oral PK in Beagle dogs (citrate salt); type: in vivo; set-up: AUC(0-t) / AUC(0-inf): unit not given here; conditions: for AUC(0-inf) / AUC(0-t) / Tmax / half-life: both sexes, dog, whole blood
Experimental: This study determined the PK profile of Compound 1 following a single intravenous injection or oral gavage administration to Beagle dogs.
Compound 1 (citrate salt) was administered to two groups of dogs (n=1/sex/group) once by intravenous injection on Day 1, dose levels of 1 (Group 1) or 4 (Group 2) mg/kg/adm, and once by oral gavage on Day 3, dose levels of 3 (Group 1) and 12 (Group 2) mg/kg/adm, respectively. The vehicle was 5% dextrose in water for intravenous and aqueous citrate buffer solution for oral gavage administrations. Relative to each dosing on Days 1 and 3, series of blood samples were collected at pre-dose, 0.083, 0.25, 0.5, 1, 2, 4, and 7 hours for intravenous or at 0.25, 0.5, 1, 2, 4, 7, and 24 hours for oral gavage administration for analysis of Compound 1 concentrations in blood and subsequent calculation of PK parameters. Additional endpoints monitored during this study included mortality, clinical observations and body weight.

[4] = Plasma protein binding, equilibrium dialysis; type: in vitro ADME, cynomolgus monkey; conditions: monkey plasma, 37° C, buffer pH 7.4; read-out: Fraction unbound (Fu), Mean
Experimental: Protein binding of Compound 1 to the plasma from several species, i.e., human, cynomolgus monkey, dog, rat, and mouse was investigated in vitro by incubation in plasma and determination of unbound fraction of Compound 1 using equilibrium dialysis. Compound 1 was incubated in 100% species-specific plasma and added to one side of the membrane in an equilibrium dialysis system while buffer (pH 7.4) is added to the other side. The system was allowed to reach equilibrium at 37° C. Compound concentration on both sides of the membrane is measured by liquid chromatography—tandem mass spectroscopy (LC-MS/MS).

## CC(C)C[C@@H]1NCCN([C@@H](CC(C)C)C(=O)N2CCC3(C[C@@H]2C)OCC(CN2CCCC2)CO3)C1=O (stereo partly drawn) [Compound 1, (S)-3-isobutyl-1-((S)-4-methyl-1-((S)-8-methyl-3-(pyrrolidin-1-ylmethyl)-1,5-dioxa-9-azaspiro[5.5]undecan-9-yl)-1-oxopentan-2-yl)piperazin-2-one]
22Rv1; 3 mg/kg oral
  tumor response: cytostatic growth inhibition
22Rv1; 3 mg/kg oral, 7d on/7d off compared to same dose daily
  anti-tumor activity, every other week vs daily: almost the same anti-tumor growth activity
22Rv1; 30 mg/kg BID once weekly (60 mg/kg weekly)
  Tumor growth inhibition: approx. 50%
22Rv1; once weekly 60 mg/kg/day as 30 mg/kg BID, 5 weeks, p 0.001
  Tumor growth inhibition: 47% (0.001)/**5 weeks
[1]; 8 mg/kg/day, Day 1
  Total AUC: 85 ng·h/mL
[1]; 8 mg/kg/day, Day 5
  Total AUC: 175 ng·h/mL
[1]; 12 mg/kg/day, Day 1
  Total AUC: 106 ng·h/mL
[1]; 12 mg/kg/day, Day 5
  Total AUC: 329 ng·h/mL
[1]; 16 mg/kg/day, Day 1
  Total AUC: 351 ng·h/mL
[1]; 16 mg/kg/day, Day 5
  Total AUC: 561 ng·h/mL
[1]; both sexes, cynomolgus monkey, serum, po, 8 mg/kg/day, Day 1, read-out: Peak serum levels (Cmax)
  Cmax: 45 ng/mL
[1]; both sexes, cynomolgus monkey, serum, po, 8 mg/kg/day, Day 5, read-out: Cmax
  Cmax: 64 ng/mL
[1]; both sexes, cynomolgus monkey, serum, po, 12 mg/kg/day, Day 1, read-out: Peak serum levels (Cmax)
  Cmax: 42 ng/mL
[1]; both sexes, cynomolgus monkey, serum, po, 12 mg/kg/day, Day 5, read-out: Cmax
  Cmax: 72 ng/mL
[1]; both sexes, cynomolgus monkey, serum, po, 16 mg/kg/day, Day 1, read-out: Peak serum levels (Cmax)
  Cmax: 136 ng/mL
[1]; both sexes, cynomolgus monkey, serum, po, 16 mg/kg/day, Day 5, read-out: Cmax
  Cmax: 112 ng/mL
[1]; both sexes, cynomolgus monkey, serum, po, Day 1
  Tmax: 30 to 54 min
[1]; both sexes, cynomolgus monkey, serum, po, Day 5
  Tmax: 30 to 105 min
[1]; both sexes, cynomolgus monkey, serum, po, all groups and time points, read-out: half-life (T1/2)
  half-life: 300 to 420 min
[1]; oral 8, 12, and 16 mg/kg/day for 5 consecutive days, slight body weight loss, changes in hematology, urinalysis, clinical chemistry
  tolerability: tolerated
[2]; intravenous 5 mg/kg
  AUC(0-inf): 1.11
  AUC(0-t): 1.03
  Tmax: 10.2 min
  half-life: 138 min
[2]; intravenous 50 mg/kg
  AUC(0-inf): 13
  AUC(0-t): 12.2
  Tmax: 10.2 min
  half-life: 96 min
[2]; oral 5 mg/kg
  AUC(0-inf): 0.246
  AUC(0-t): 0.179
  Tmax: 10.2 min
  half-life: 240 min
[2]; oral 10 mg/kg
  AUC(0-inf): 0.471
  AUC(0-t): 0.31
  Tmax: 10.2 min
  half-life: 336 min
[2]; oral 20 mg/kg
  AUC(0-inf): 2.49
  AUC(0-t): 1.97
  Tmax: 10.2 min
  half-life: 192 min
[2]; oral 50 mg/kg
  AUC(0-inf): 3.38
  AUC(0-t): 2.88
  Tmax: 40.2 min
  half-life: 156 min
[3]; IV 1 mg/kg
  Cl: 0.0057 (mg/kg)/(nmo/L)/h
  Vss: 0.004 (mg/kg)/(nmo/L)
[3]; IV 4 mg/kg
  Cl: 0.0014 (mg/kg)/(nmo/L)/h
  Vss: 0.004 (mg/kg)/(nmo/L)
[3]; IV 1 and 4 mg/kg/adm or oral gavage 3 and 12 mg/kg/adm
  tolerability: well tolerated
[3]; Beagle, IV 1 mg/kg
  AUC(0-inf): 0.089
  AUC(0-t): 0.063
  Tmax: 4.8 min
  half-life: 30 min
[3]; Beagle, po 12 mg/kg
  AUC(0-inf): 2.39
  AUC(0-t): 1.91
  Tmax: 15 min
  half-life: 198 min
[3]; beagle, IV 4 mg/kg
  AUC(0-inf): 1.45
  AUC(0-t): 1.29
  Tmax: 4.8 min
  half-life: 150 min
[3]; beagle, po 3 mg/kg
  AUC(0-inf): 0.289
  AUC(0-t): 0.182
  Tmax: 15 min
  half-life: 156 min
[3]; po 3 mg/kg
  Cl: 0.0052 (mg/kg)/(nmo/L)/h
[3]; po 12 mg/kg
  Cl: 0.0025 (mg/kg)/(nmo/L)/h
[4]
  fraction unbound: 0.602
